System: adult patients with uncontrolled gout
Assay: Serum uric acid (sUA) levels and sUA responder rate, open-label study of pegloticase with MTX (MIRROR OL)
Format: in vivo, human
Conditions: for Serum Uric Acid Change from Methotrexate Baseline, Mean (SD) / Serum Uric Acid Change from Methotrexate Baseline, Median / Serum Uric Acid, Observed, Mean (SD) / Serum Uric Acid, Observed, Median / sUA <6 mg/dL, n (%): mITT
Description: The primary objective is to estimate the response rate during Month 6 (Weeks 20, 22, and 24), as measured by the sustained normalization of serum uric acid (SUA) to <6 mg/dL for at least 80% of the time during Month 6 in subjects receiving KXX with MTX.
The primary efficacy outcome endpoint is the sustained normalization of SUA to <6 mg/dL for at least 80% of the time during month 6 (weeks 20, 22, and 24) in subjects receiving KXX with MTX. […] Participants who achieve this endpoint were classified as “responders.” Serum uric acid (SUA) responders may also be defined as participants achieving and maintaining SUA <6 mg/dL for at least 80% of the time during Month 6 (Weeks 20, 22, and 24).
Blood samples may be collected prior to each pegloticase infusion for measurement of SUA levels using the Beckman Coulter AU System Uric Acid procedure. Participants were declared “non-responders” if there were SUA measures >6 mg/dL at 2 consecutive study visits beginning with the week 2 visit. […] This assumption and subsequent discontinuation of pegloticase was consistent with the protocol of large phase III randomized controlled trials and the product label. A formal stopping rule was 2 occasions of SUA levels of greater than 6 mg/dL.
Clinical Chemistry—Blood samples were collected prior to each pegloticase infusion for measurement of SUA levels (primary efficacy parameter) using the Beckman Coulter AU System Uric Acid procedure. In this procedure uric acid is converted to hydrogen peroxide. Hydrogen peroxide reacts with reagent to produce a chromophore which is read bichromatically at 660/800 nm. The amount of dye formed is proportional to the uric acid concentration in the sample.
Serum samples for measurement of SUA levels were collected at the Screening Visit, the Week −4 Visit (prior to the first dose of MTX), and the Week −2 Visit during the MTX Run-in Period; within 48 hours prior to each pegloticase infusion and after the end of each pegloticase infusion prior to discharge from the site during the Pegloticase+IMM Period; at the non-infusion Week 52/End of Study/Early Termination Visits and at the Post Treatment 3 and 6 Month Follow-up Visits. Additional serum samples for SUA levels were collected at optional non-infusion (Frequent Sampling) Visits at Weeks 1 and 7. […] Subjects with SUA level >6 mg/dL at 2 consecutive visits beginning at Week 2 visit discontinued treatment, completed the End of Pegloticase Infusion Visit procedures within 2 weeks and continued the subject visits according to the protocol (without treatment).
Efficacy analyses were performed using the modified intention-to-treat (mITT) population, defined as all enrolled subjects who received ≥1 dose of pegloticase. The proportion of Month 6 responders was summarized, along with a 95% confidence interval for the proportion. The proportion of Month 3 and overall (Months 3 and 6 combined) responders was analyzed similarly.
A subject was declared a non-responder if the subject had SUA level >6 mg/dL at 2 consecutive study visits beginning with the Week 2 Visit. In addition, a subject who withdraws from study treatment for any reason after the first dose of pegloticase in the KXX+MTX Period and prior to Month 6 (for the primary endpoint) or Month 3 (for the secondary endpoint) was considered a non-responder if SUA values were not collected at the planned time points.
Patients were administered oral MTX (15 mg/week) and folate (1 mg/day) 4 weeks prior to the first pegloticase infusion (Day 1) and throughout the pegloticase treatment period. Blood was drawn prior to each infusion to measure sUA level, monitor clinical parameters, and examine for ADA development. All patients followed typical IR prophylaxis protocols (fexofenadine one day before and the morning of each infusion and acetaminophen and IV corticosteroid the morning of each infusion).

[1] = Day 1 - Pre-Infusion (after MTX Run-in)

## CN(Cc1cnc2nc(N)nc(N)c2n1)c1ccc(C(=O)N[C@@H](CCC(=O)O)C(=O)O)cc1 [MTX, methotrexate]
Day 1, after 4-week MTX run-in, before first pegloticase infusion, 14 patients
  mean sUA: 9.2 ± 2.5 mg/dL
[1]
  Serum Uric Acid Change from Methotrexate Baseline, Mean (SD): 0.25 (1.283) mg/dL
  Serum Uric Acid Change from Methotrexate Baseline, Median: -0.25 mg/dL
  Serum Uric Acid, Observed, Mean (SD): 9.16 (2.486) mg/dL
  Serum Uric Acid, Observed, Median: 9.00 mg/dL
  sUA <6 mg/dL, n (%): 1 (7.1%)
Week - 2 (MTX Run-in)
  Serum Uric Acid Change from Methotrexate Baseline, Mean (SD): 0.54 (0.839) mg/dL
  Serum Uric Acid Change from Methotrexate Baseline, Median: 0.50 mg/dL
  Serum Uric Acid, Observed, Mean (SD): 9.45 (2.211) mg/dL
  Serum Uric Acid, Observed, Median: 9.30 mg/dL
  sUA <6 mg/dL, n (%): 1 (7.1%)

From patent US20220409620A1, “REDUCING IMMUNOGENICITY TO PEGLOTICASE” (Horizon Pharma Rheumatology LLC, priority 2016, published 2022)
